What was measured:
AEX-2/GPCR = molecular target: T1, AEX-2/GPCR (Caenorhabditis elegans, UniProt G5ECD9); assay: In vitro cellular assay for AEX-2/GPCR activation by NLP-40-derived peptides; type: cell-based, C. elegans; conditions: for activation of AEX-2/GPCR (in words): CHO/mtAEQ/Gα16 cells transfected with AEX-2/GPCR, aequorin luminescence, all concentrations tested
T1 sequence (G5ECD9 1-321): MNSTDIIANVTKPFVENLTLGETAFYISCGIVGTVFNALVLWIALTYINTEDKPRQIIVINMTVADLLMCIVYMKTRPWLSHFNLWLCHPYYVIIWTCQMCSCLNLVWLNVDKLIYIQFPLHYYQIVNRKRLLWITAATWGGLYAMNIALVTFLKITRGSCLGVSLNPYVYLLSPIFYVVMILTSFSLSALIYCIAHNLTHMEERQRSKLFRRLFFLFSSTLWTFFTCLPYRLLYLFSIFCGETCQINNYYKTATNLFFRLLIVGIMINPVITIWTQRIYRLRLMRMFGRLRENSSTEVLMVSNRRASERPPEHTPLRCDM

[1] = system: enteric muscle contractions (Exp); assay: Enteric muscle contraction; type: in vivo, C. elegans; conditions: peptide injection; data not shown

Row | Substance | activation of AEX-2/GPCR (in words) (AEX-2/GPCR) | induction of enteric muscle contractions (Exp) (in words) [1] | relative potency at AEX-2/GPCR (in words) (AEX-2/GPCR; CHO/mtAEQ/Gα16 cells, NLP-40 P3-1 compared to NLP-40 P3-2)
1 | APSAPAGLEEKL [NLP-40 P1] | failed to activate AEX-2/GPCR at all concentrations tested | – | –
2 | MVAWQPM [NLP-40 P3-1] | able to activate AEX-2/GPCR | failed to induce robust enteric muscle contractions (Exp) | more potent ligand for AEX-2/GPCR
3 | VAWQPM [NLP-40 P3-2] | able to activate AEX-2/GPCR | – | –
